From patent publication US9745308B2, “Pyridazinone derivatives as phoshoinositide 3-kinases inhibitors” (CHIESI FARMACEUTICI S.p.A., priority 2014, dated 2017)

How the values were obtained:
PI3Kδ = PI3Kδ (Homo sapiens, UniProt O00329); assay: PI3K enzyme inhibitory activity in the cell free assay (ADP-Glo Kinase Assay), PI3K delta
PI3Kγ = PI3Kγ (Homo sapiens, UniProt P48736); assay: PI3K enzyme inhibitory activity in the cell free assay (ADP-Glo Kinase Assay), PI3K gamma
PI3Kβ = PI3Kβ (Homo sapiens, UniProt P42338); assay: PI3K enzyme inhibitory activity in the cell free assay (ADP-Glo Kinase Assay), PI3K beta
PI3Kα = PI3Kα (Homo sapiens, UniProt P42336); assay: PI3K enzyme inhibitory activity in the cell free assay (ADP-Glo Kinase Assay), PI3K alpha
Sequence of PI3Kα (P42336 whole entry): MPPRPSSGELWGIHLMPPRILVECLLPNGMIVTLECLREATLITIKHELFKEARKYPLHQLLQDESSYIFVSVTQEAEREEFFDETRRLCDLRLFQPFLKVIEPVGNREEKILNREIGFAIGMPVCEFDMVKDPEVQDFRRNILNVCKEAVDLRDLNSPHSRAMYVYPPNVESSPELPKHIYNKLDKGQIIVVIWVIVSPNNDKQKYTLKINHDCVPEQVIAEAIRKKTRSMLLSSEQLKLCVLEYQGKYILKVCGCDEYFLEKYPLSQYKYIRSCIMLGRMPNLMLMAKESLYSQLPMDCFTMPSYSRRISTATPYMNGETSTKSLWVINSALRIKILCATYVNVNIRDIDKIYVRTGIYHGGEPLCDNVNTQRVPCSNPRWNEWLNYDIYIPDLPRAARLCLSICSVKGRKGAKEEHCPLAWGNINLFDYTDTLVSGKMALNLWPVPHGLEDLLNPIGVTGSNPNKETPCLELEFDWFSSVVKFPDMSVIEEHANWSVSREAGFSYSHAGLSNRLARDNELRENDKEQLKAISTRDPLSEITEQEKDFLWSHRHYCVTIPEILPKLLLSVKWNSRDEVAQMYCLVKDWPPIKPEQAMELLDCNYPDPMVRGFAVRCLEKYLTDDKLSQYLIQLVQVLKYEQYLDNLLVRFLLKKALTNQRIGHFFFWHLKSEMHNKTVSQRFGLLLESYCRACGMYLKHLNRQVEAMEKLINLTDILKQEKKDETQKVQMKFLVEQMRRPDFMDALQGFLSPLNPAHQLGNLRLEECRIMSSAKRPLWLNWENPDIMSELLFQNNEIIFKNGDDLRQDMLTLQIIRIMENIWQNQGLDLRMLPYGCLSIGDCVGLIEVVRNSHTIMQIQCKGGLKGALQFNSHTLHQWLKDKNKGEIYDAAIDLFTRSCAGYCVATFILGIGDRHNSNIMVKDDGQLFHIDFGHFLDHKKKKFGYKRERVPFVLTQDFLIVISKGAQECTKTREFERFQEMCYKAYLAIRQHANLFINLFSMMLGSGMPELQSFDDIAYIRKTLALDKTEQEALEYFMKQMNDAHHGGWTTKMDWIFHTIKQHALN
Sequence of PI3Kα (P27986 whole entry partner): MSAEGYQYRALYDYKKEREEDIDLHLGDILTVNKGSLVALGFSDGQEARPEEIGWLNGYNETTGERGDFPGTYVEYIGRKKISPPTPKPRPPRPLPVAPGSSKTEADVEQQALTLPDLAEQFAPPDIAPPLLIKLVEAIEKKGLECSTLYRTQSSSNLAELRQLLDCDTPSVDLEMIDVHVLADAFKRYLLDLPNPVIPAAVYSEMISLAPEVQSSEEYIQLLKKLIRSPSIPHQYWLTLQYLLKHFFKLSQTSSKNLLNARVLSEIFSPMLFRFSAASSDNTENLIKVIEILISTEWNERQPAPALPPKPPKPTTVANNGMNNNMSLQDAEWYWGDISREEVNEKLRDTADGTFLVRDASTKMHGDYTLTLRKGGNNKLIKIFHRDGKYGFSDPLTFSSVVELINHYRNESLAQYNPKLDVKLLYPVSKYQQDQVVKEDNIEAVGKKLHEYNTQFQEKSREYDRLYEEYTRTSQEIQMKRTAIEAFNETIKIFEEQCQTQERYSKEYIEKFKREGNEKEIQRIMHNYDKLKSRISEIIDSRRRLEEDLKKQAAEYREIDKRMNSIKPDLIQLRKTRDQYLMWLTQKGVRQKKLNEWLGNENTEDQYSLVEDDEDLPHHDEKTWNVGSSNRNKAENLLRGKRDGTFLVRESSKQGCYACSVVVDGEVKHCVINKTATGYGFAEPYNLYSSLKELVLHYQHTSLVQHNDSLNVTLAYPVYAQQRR

Sequence of PI3Kγ (P48736 whole entry): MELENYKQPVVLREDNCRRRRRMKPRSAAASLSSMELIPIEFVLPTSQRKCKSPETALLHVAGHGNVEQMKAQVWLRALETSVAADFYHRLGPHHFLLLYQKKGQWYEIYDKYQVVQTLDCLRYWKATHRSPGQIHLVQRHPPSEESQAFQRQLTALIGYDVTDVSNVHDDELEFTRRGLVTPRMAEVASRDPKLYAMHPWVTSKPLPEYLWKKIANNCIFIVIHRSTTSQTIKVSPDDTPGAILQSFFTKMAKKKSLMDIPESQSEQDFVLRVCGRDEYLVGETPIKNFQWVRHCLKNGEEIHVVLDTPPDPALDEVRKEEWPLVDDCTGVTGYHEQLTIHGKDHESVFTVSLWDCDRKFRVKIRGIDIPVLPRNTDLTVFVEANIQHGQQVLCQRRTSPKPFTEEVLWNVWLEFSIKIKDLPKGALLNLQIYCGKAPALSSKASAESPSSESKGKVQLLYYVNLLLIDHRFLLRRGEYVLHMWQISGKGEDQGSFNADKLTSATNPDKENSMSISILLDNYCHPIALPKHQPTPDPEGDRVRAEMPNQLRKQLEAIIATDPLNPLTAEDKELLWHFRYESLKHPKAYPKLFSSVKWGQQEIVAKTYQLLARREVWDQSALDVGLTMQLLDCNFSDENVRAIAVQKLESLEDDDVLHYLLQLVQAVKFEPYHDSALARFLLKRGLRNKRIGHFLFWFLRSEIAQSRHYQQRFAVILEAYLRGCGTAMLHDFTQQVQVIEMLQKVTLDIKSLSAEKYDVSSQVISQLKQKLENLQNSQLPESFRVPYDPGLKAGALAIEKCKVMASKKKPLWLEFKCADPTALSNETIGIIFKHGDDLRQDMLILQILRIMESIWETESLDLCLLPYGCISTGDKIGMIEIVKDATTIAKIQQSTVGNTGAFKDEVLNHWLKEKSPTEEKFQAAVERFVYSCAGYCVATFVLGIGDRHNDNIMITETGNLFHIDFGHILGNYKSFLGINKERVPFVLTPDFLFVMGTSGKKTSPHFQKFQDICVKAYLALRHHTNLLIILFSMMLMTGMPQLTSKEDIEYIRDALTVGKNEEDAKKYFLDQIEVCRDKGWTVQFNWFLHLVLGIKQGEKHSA
Sequence of PI3Kδ (O00329 whole entry): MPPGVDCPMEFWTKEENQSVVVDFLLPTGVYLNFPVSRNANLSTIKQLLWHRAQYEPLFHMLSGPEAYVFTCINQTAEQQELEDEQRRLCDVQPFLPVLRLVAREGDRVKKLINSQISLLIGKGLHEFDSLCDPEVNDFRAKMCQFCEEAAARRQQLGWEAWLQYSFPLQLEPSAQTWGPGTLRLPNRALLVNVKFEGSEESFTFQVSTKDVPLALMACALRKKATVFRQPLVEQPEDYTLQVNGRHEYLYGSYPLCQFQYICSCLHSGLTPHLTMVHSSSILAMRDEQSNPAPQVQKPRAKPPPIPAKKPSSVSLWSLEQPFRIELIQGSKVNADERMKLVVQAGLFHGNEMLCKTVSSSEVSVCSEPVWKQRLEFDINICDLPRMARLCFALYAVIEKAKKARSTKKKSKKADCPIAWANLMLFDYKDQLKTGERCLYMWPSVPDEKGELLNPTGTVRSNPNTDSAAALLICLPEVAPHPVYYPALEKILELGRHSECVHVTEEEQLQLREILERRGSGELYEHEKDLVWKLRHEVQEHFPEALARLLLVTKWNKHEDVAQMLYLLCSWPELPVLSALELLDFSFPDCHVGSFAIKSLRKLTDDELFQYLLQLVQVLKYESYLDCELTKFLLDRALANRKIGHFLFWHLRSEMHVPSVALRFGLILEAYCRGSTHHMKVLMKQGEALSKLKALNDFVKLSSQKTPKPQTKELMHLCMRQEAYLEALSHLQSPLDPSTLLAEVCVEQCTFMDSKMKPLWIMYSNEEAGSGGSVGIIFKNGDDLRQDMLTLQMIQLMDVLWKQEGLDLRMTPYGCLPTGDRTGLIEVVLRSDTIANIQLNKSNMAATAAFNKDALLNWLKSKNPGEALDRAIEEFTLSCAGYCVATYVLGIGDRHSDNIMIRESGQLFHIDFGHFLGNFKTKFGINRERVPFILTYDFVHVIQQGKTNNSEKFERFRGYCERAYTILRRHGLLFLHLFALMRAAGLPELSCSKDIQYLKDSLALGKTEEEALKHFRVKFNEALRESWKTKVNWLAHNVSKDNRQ
Sequence of PI3Kδ (P27986 whole entry partner): as the sequence (P27986 whole entry partner) above
Sequence of PI3Kβ (P42338 whole entry): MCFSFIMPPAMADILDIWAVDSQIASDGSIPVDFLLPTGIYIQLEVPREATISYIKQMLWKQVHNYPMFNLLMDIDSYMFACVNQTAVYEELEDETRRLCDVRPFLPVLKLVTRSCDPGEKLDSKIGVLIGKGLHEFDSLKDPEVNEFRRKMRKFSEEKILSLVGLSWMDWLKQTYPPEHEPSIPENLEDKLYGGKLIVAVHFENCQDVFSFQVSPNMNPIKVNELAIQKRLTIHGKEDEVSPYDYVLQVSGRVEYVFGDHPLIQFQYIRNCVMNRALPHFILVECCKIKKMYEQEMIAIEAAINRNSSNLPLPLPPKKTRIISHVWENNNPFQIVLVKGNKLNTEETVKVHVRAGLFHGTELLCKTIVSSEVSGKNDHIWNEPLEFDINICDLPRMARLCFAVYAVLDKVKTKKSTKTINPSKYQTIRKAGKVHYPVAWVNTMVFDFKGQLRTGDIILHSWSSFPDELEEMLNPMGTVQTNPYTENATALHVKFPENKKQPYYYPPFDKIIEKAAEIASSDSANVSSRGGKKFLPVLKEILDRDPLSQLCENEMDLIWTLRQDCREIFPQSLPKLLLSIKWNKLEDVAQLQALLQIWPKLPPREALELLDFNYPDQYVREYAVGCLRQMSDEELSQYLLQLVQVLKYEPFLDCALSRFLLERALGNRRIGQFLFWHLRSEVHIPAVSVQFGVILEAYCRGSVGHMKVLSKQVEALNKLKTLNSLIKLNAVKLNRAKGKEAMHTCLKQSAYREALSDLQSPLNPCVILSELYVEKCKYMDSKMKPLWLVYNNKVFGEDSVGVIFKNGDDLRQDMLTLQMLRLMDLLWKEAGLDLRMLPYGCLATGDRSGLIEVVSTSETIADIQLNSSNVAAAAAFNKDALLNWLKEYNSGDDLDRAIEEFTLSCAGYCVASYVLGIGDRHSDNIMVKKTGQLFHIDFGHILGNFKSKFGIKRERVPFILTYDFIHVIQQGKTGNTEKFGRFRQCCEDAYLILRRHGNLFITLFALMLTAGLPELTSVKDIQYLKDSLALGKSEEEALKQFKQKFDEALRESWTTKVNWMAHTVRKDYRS
Sequence of PI3Kβ (P27986 whole entry partner): as the sequence (P27986 whole entry partner) above

IC50 (PI3Kδ)	IC50 (PI3Kγ)	IC50 (PI3Kβ)	IC50 (PI3Kα)	SMILES
0.01 to 1 µM	0.01 to 1 µM	0.01 to 1 µM	> 1 µM	CC(c1cc(=O)n(C)nc1-c1ccccc1)n1nc(-c2cc(O)cc(F)c2)c2c(N)ncnc21 (centres unmarked) [Example 2, 5-{1-[4-amino-3-(3-fluoro-5-hydroxyphenyl)-1H-pyrazolo[3,4-d]pyrimidin-1-yl]ethyl}-2-methyl-6-phenyl-2,3-dihydropyridazin-3-one]
0.01 to 1 µM	> 1 µM	0.01 to 1 µM	> 1 µM	CC(c1cc(=O)n(CC2CC2)nc1-c1ccccc1)n1nc(-c2cc(O)cc(F)c2)c2c(N)ncnc21 (centres unmarked) [Example 4, 5-{1-[4-amino-3-(3-fluoro-5-hydroxyphenyl)-1H-pyrazolo[3,4-d]pyrimidin-1-yl]ethyl}-2-(cyclopropylmethyl)-6-phenyl-2,3-dihydropyridazin-3-one]
0.01 to 1 µM	0.01 to 1 µM	0.01 to 1 µM	> 1 µM	CC(c1cc(=O)n(-c2ccccc2)nc1-c1ccccc1)n1nc(-c2cc(O)cc(F)c2)c2c(N)ncnc21 (centres unmarked) [Example 5, 5-{1-[4-amino-3-(3-fluoro-5-hydroxyphenyl)-1H-pyrazolo[3,4-d]pyrimidin-1-yl]ethyl}-2,6-diphenyl-2,3-dihydropyridazin-3-one]
< 0.01 µM	0.01 to 1 µM	< 0.01 µM	0.01 to 1 µM	CC(c1cnn(Cc2ccccc2)c(=O)c1)n1nc(-c2cc(O)cc(F)c2)c2c(N)ncnc21 (centres unmarked) [Example 7, 5-{1-[4-amino-3-(3-fluoro-5-hydroxyphenyl)-1H-pyrazolo[3,4-d]pyrimidin-1-yl]ethyl}-2-benzyl-2,3-dihydropyridazin-3-one]
< 0.01 µM	0.01 to 1 µM	< 0.01 µM	0.01 to 1 µM	CC(c1cnn(-c2ccccc2)c(=O)c1)n1nc(-c2cc(O)cc(F)c2)c2c(N)ncnc21 (centres unmarked) [Example 8, 5-{1-[4-amino-3-(3-fluoro-5-hydroxyphenyl)-1H-pyrazolo[3,4-d]pyrimidin-1-yl]ethyl}-2-phenyl-2,3-dihydropyridazin-3-one]
< 0.01 µM	> 1 µM	> 1 µM	> 1 µM	CC(c1cnn(CCN2CCOCC2)c(=O)c1-c1ccccc1)n1nc(-c2cc(O)cc(F)c2)c2c(N)ncnc21 (centres unmarked) [Example 14, 5-{1-[4-amino-3-(3-fluoro-5-hydroxyphenyl)-1H-pyrazolo[3,4-d]pyrimidin-1-yl]ethyl}-2-[2-(morpholin-4-yl)ethyl]-4-phenyl-2,3-dihydropyridazin-3-one]
< 0.01 µM	0.01 to 1 µM	0.01 to 1 µM	> 1 µM	CC(c1cnn(-c2cccnc2)c(=O)c1-c1ccccc1)n1nc(-c2cc(O)cc(F)c2)c2c(N)ncnc21 (centres unmarked) [Example 15, 5-{1-[4-amino-3-(3-fluoro-5-hydroxyphenyl)-1H-pyrazolo[3,4-d]pyrimidin-1-yl]ethyl}-4-phenyl-2-(pyridin-3-yl)-2,3-dihydropyridazin-3-one]
< 0.01 µM	0.01 to 1 µM	0.01 to 1 µM	0.01 to 1 µM	Nc1ncnc2c1c(-c1cc(O)cc(F)c1)nn2Cc1cnn(Cc2ccccc2)c(=O)c1 [Example 18, 5-{[4-amino-3-(3-fluoro-5-hydroxyphenyl)-1H-pyrazolo[3,4-d]pyrimidin-1-yl]methyl}-2-benzyl-2,3-dihydropyridazin-3-one]
> 1 µM	> 1 µM	> 1 µM	> 1 µM	CC(Nc1ncnc(N)c1C#N)c1cc(=O)n(Cc2ccccc2)nc1-c1ccccc1 (centres unmarked) [Example 19, 4-amino-6-{[1-(1-benzyl-6-oxo-3-phenyl-1,6-dihydropyridazin-4-yl)ethyl]amino}pyrimidine-5-carbonitrile]
> 1 µM	> 1 µM	> 1 µM	> 1 µM	CC(Nc1ncnc(N)c1C#N)c1cc(=O)n(C(C)C)nc1-c1ccccc1 (centres unmarked) [Example 21, 4-amino-6-({1-[6-oxo-3-phenyl-1-(propan-2-yl)-1,6-dihydropyridazin-4-yl]ethyl}amino)pyrimidine-5-carbonitrile]
> 1 µM	> 1 µM	> 1 µM	> 1 µM	CC(Nc1ncnc(N)c1C#N)c1cc(=O)n(CC2CC2)nc1-c1ccccc1 (centres unmarked) [Example 22, 4-amino-6-({1-[1-(cyclopropylmethyl)-6-oxo-3-phenyl-1,6-dihydropyridazin-4-yl]ethyl}amino)pyrimidine-5-carbonitrile]

Further lines, the molecule ahead of its results:

SMILES	IC50 (PI3Kδ)	IC50 (PI3Kγ)	IC50 (PI3Kβ)	IC50 (PI3Kα)
CC(c1cc(=O)n(Cc2ccccc2)nc1-c1ccccc1)n1nc(-c2cc(O)cc(F)c2)c2c(N)ncnc21 (centres unmarked) [Example 1, 5-{1-[4-amino-3-(3-fluoro-5-hydroxyphenyl)-1H-pyrazolo[3,4-d]pyrimidin-1-yl]ethyl}-2-benzyl-6-phenyl-2,3-dihydropyridazin-3-one]	0.01 to 1 µM	> 1 µM	0.01 to 1 µM	> 1 µM
CC(C)n1nc(-c2ccccc2)c(C(C)n2nc(-c3cc(O)cc(F)c3)c3c(N)ncnc32)cc1=O (centres unmarked) [Example 3, 5-{1-[4-amino-3-(3-fluoro-5-hydroxyphenyl)-1H-pyrazolo[3,4-d]pyrimidin-1-yl]ethyl}-6-phenyl-2-(propan-2-yl)-2,3-dihydropyridazin-3-one]	0.01 to 1 µM	> 1 µM	0.01 to 1 µM	> 1 µM
CC(c1cc(=O)n(Cc2ccccn2)nc1-c1ccccc1)n1nc(-c2cc(O)cc(F)c2)c2c(N)ncnc21 (centres unmarked) [Example 6, 5-{1-[4-amino-3-(3-fluoro-5-hydroxyphenyl)-1H-pyrazolo[3,4-d]pyrimidin-1-yl]ethyl}-6-phenyl-2-(pyridin-2-ylmethyl)-2,3-dihydropyridazin-3-one]	0.01 to 1 µM	> 1 µM	0.01 to 1 µM	> 1 µM
CC(c1cnn(C)c(=O)c1)n1nc(-c2cc(O)cc(F)c2)c2c(N)ncnc21 (centres unmarked) [Example 9, 5-{1-[4-amino-3-(3-fluoro-5-hydroxyphenyl)-1H-pyrazolo[3,4-d]pyrimidin-1-yl]ethyl}-2-methyl-2,3-dihydropyridazin-3-one]	< 0.01 µM	0.01 to 1 µM	0.01 to 1 µM	0.01 to 1 µM
CC(c1cnn(C)c(=O)c1-c1ccccc1)n1nc(-c2cc(O)cc(F)c2)c2c(N)ncnc21 (centres unmarked) [Example 12, 5-{1-[4-amino-3-(3-fluoro-5-hydroxyphenyl)-1H-pyrazolo[3,4-d]pyrimidin-1-yl]ethyl}-2-methyl-4-phenyl-2,3-dihydropyridazin-3-one]	< 0.01 µM	0.01 to 1 µM	0.01 to 1 µM	> 1 µM
CC(c1cnn(-c2ccccc2)c(=O)c1-c1ccccc1)n1nc(-c2cc(O)cc(F)c2)c2c(N)ncnc21 (centres unmarked) [Example 13, 5-{1-[4-amino-3-(3-fluoro-5-hydroxyphenyl)-1H-pyrazolo[3,4-d]pyrimidin-1-yl]ethyl}-2,4-diphenyl-2,3-dihydropyridazin-3-one]	0.01 to 1 µM	0.01 to 1 µM	0.01 to 1 µM	0.01 to 1 µM
CC(Nc1ncnc(N)c1C#N)c1cc(=O)n(C)nc1-c1ccccc1 (centres unmarked) [Example 20, 4-amino-6-(1-(1-methyl-6-oxo-3-phenyl-1,6-dihydropyridazin-4-yl)ethylamino)pyrimidine-5-carbonitrile]	0.01 to 1 µM	> 1 µM	> 1 µM	> 1 µM
CC(Nc1ncnc(N)c1C#N)c1cc(=O)n(-c2ccccc2)nc1-c1ccccc1 (centres unmarked) [Example 23, 4-amino-6-{[1-(6-oxo-1,3-diphenyl-1,6-dihydropyridazin-4-yl)ethyl]amino}pyrimidine-5-carbonitrile]	> 1 µM	> 1 µM	> 1 µM	> 1 µM
CC(Nc1ncnc2[nH]cnc12)c1cc(=O)n(Cc2ccccc2)nc1-c1ccccc1 (centres unmarked) [Example 24, 2-benzyl-6-phenyl-5-{1-[(9H-purin-6-yl)amino]ethyl}-2,3-dihydropyridazin-3-one]	> 1 µM	> 1 µM	> 1 µM	> 1 µM
